US20250313548A1 (Actio Biosciences, Inc., priority 2023, published 2025)

Molecular target: human, KCNT1 (Homo sapiens (Human), UniProt Q5JUK3)
Assay: FLIPR Tl/K Flux Assay
Assay type: cell-based
Settings: HEK293 cells stably expressing human KCNT1; Tl+ flux stimulated with EC80 of agonist Loxapine
Description: HEK293 cells stably expressing human, KCNT1 were cultured in DMEM, 10% FBS, 100 U/mL penicillin-streptomycin and […] puromycin for selection purposes. One day before the assay, cells were detached using TrypLE™ Express and counted using a cell counter. Only cells with >85% viability were used for the assay. […] The cells were incubated overnight at 37° C., 5% (v/v) CO2.
On the day of the assay, the reagents were prepared following the FLIPR® Potassium Assay Kit manual: prepare 2× dye solution, dilute the dye with assay buffer (20 mM HEPES in 1× HBSS, PH7.4), addition of probenecid to a final concentration of 5 mM, and vortexed vigorously for 1-2 minutes. The cell plate was flicked to remove medium and tapped on paper towels to remove excess media. […] The cell plate was moved to a plate shaker, agitated at 600 rpm for two minutes, and then incubated at 25° C. for one hour.
The compounds were prepared in DMSO and transferred to a 384-well compound plate (PP, low binding), referred to as a source plate. Reference agonist (300 nM) compound and test inhibitor (10 mM) compounds were added to the compound plate and a 4-fold serial dilution was performed in DMSO. Using an ECHO dispenser, compounds were dispensed at 90 nL/well from the source plate to a 384-well compound plate (PP, low binding). After the dispensing was complete, 30 µL/well assay buffer was added to the compound plate and mixed for two minutes on a plate shaker. The cell plate, compound plate, and tips were loaded into the FLIPR instrument, and a transfer of 10 μl of 3× compound to the cell plate was initiated. The treated cell plate was kept at in the dark at 25° C. for 30 minutes. Chloride-free stimulation buffer containing 4× 2 mM Tl+ and 4×EC80 of agonist Loxapine was loaded into a 384-well compound plate (PP, low binding). After the 30-minute incubation, the cell plate, compound plate containing stimulation buffer, and FLIPR tips were loaded into the FLIPR instrument. After a baseline read, the FLIPR initiates a transfer of 10 μL of stimulation buffer containing Loxapine to the cell plate. The plate was read for 160 sec with 1 second interval reads to obtain the data.
The normalized fluorescence reading (RFU) was calculated as shown follow, while Fmax and Fmin stand for maximum and minimum of signal during defined time window. The IC50 was calculated by fitting % inhibition against log of compound concentrations with Hill equation using XLfit.

human, KCNT1, sequence (Q5JUK3 whole entry): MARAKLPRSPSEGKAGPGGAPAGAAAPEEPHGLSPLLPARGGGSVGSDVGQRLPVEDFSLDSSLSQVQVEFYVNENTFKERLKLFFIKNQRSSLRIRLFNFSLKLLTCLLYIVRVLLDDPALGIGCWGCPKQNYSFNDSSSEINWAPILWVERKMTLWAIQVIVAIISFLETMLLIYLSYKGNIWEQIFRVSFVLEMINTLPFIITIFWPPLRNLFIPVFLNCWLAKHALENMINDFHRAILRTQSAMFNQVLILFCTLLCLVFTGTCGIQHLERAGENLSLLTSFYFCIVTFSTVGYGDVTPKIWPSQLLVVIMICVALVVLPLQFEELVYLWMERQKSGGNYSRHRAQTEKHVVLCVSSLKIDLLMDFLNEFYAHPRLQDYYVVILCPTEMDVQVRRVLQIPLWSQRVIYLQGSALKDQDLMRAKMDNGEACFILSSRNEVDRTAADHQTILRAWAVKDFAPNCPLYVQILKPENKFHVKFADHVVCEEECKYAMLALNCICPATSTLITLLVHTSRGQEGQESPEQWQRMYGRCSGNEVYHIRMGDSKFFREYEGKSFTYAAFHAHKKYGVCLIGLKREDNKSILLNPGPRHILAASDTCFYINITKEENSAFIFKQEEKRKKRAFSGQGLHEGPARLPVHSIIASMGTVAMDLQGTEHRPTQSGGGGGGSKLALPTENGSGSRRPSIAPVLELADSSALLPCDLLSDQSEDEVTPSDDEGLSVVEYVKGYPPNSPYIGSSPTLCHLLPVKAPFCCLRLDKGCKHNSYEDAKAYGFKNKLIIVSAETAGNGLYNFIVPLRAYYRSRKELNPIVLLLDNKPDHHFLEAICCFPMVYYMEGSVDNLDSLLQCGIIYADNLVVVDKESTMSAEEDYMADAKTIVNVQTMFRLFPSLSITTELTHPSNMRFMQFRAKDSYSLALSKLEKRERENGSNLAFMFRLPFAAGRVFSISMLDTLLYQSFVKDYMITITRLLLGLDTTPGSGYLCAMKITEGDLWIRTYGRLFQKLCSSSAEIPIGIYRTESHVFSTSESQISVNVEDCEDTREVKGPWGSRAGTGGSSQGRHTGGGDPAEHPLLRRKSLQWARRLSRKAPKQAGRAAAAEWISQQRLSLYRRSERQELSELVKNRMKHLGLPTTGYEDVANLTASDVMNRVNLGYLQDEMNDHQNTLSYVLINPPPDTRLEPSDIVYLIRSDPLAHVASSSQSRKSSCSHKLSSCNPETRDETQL

Structure (SMILES)	IC50 [nM]
Cn1nc(C(F)(F)F)cc1C(=O)NC1CCc2nn(-c3ccnc(C(F)(F)F)c3)cc21 (racemic) [Compound I-1, (rac)-1-Methyl-3-(trifluoromethyl)-N-(2-(2-(trifluoromethyl)pyridin-4-yl)-2,4,5,6-tetrahydrocyclopenta[c]pyrazol-4-yl)-1H-pyrazole-5-carboxamide]	< 250
Cn1nc(C(F)(F)F)cc1C(=O)NC1CCCc2nn(-c3ccnc(C(F)(F)F)c3)cc21 (racemic) [Compound I-4, (rac)-1-Methyl-3-(trifluoromethyl)-N-(2-(2-(trifluoromethyl)pyridin-4-yl)-4,5,6,7-tetrahydro-2H-indazol-4-yl)-1H-pyrazole-5-carboxamide]	< 250
CCn1nc(C(F)(F)F)cc1C(=O)NC1CCCc2nn(-c3ccnc(C(F)(F)F)c3)cc21 (racemic) [Compound I-7, (rac)-1-Ethyl-3-(trifluoromethyl)-N-(2-(2-(trifluoromethyl)pyridin-4-yl)-4,5,6,7-tetrahydro-2H-indazol-4-yl)-1H-pyrazole-5-carboxamide]	< 250
CC(C)n1nc(C(F)(F)F)cc1C(=O)NC1CCCc2nn(-c3ccnc(C(F)(F)F)c3)cc21 (racemic) [Compound I-8, (rac)-1-Isopropyl-3-(trifluoromethyl)-N-(2-(2-(trifluoromethyl)pyridin-4-yl)-4,5,6,7-tetrahydro-2H-indazol-4-yl)-1H-pyrazole-5-carboxamide]	< 250
Cn1nc(C(C)(F)F)cc1C(=O)NC1CCCc2nn(-c3ccnc(C(F)(F)F)c3)cc21 (racemic) [Compound I-10, (rac)-3-(1,1-Difluoroethyl)-1-methyl-N-(2-(2-(trifluoromethyl)pyridin-4-yl)-4,5,6,7-tetrahydro-2H-indazol-4-yl)-1H-pyrazole-5-carboxamide]	< 250
Cn1nc(C2CC2)cc1C(=O)NC1CCCc2nn(-c3ccnc(C(F)(F)F)c3)cc21 (racemic) [Compound I-11, (rac)-3-Cyclopropyl-1-methyl-N-(2-(2-(trifluoromethyl)pyridin-4-yl)-4,5,6,7-tetrahydro-2H-indazol-4-yl)-1H-pyrazole-5-carboxamide]	250 to 500
Cn1nc(C(F)F)cc1C(=O)NC1CCCc2nn(-c3ccnc(C(F)(F)F)c3)cc21 (racemic) [Compound I-12, (rac)-3-(Difluoromethyl)-1-methyl-N-(2-(2-(trifluoromethyl)pyridin-4-yl)-4,5,6,7-tetrahydro-2H-indazol-4-yl)-1H-pyrazole-5-carboxamide]	< 250
O=C(NC1CCCc2nn(-c3ccnc(C(F)(F)F)c3)cc21)c1ccccc1 (racemic) [Compound I-13, (rac)-N-(2-(2-(Trifluoromethyl)pyridin-4-yl)-4,5,6,7-tetrahydro-2H-indazol-4-yl)benzamide]	< 250
CCOc1cc(-n2cc3c(n2)CCCC3NC(=O)c2cc(Cl)cc(C(F)(F)F)c2)ccn1 (racemic) [Compound I-14, (rac)-3-Chloro-N-(2-(2-ethoxypyridin-4-yl)-4,5,6,7-tetrahydro-2H-indazol-4-yl)-5-(trifluoromethyl)benzamide]	< 250
CCOc1cc(-n2cc3c(n2)CCCC3NC(=O)c2cc(C)cc(C(F)(F)F)c2)ccn1 (racemic) [Compound I-15, (rac)-N-(2-(2-Ethoxypyridin-4-yl)-4,5,6,7-tetrahydro-2H-indazol-4-yl)-3-methyl-5-(trifluoromethyl)benzamide]	< 250
O=C(NC1CCCc2nn(-c3ccnc(C(F)(F)F)c3)cc21)c1ccc(C(F)(F)F)cc1 (racemic) [Compound I-16, (rac)-4-(Trifluoromethyl)-N-(2-(2-(trifluoromethyl)pyridin-4-yl)-4,5,6,7-tetrahydro-2H-indazol-4-yl)benzamide]	< 250
Cc1cccc(C(=O)NC2CCCc3nn(-c4ccnc(C(F)(F)F)c4)cc32)c1 (racemic) [Compound I-17, (rac)-3-Methyl-N-(2-(2-(trifluoromethyl)pyridin-4-yl)-4,5,6,7-tetrahydro-2H-indazol-4-yl)benzamide]	< 250

Now from value to molecule:

IC50 [nM]	Structure (SMILES)
< 250	CCOc1cc(-n2cc3c(n2)CCCC3NC(=O)c2cccc(C(F)(F)F)c2)ccn1 (racemic) [Compound I-18, (rac)-N-(2-(2-Ethoxypyridin-4-yl)-4,5,6,7-tetrahydro-2H-indazol-4-yl)-3-(trifluoromethyl)benzamide]
250 to 500	O=C(NC1CCCc2nn(-c3ccnc(C(F)(F)F)c3)cc21)c1ccc(C(F)(F)F)nc1 (racemic) [Compound I-19, (rac)-6-(Trifluoromethyl)-N-(2-(2-(trifluoromethyl)pyridin-4-yl)-4,5,6,7-tetrahydro-2H-indazol-4-yl)nicotinamide]
< 250	O=C(NC1CCCc2nn(-c3ccnc(C(F)(F)F)c3)cc21)c1ccnc(C(F)(F)F)c1 (racemic) [Compound I-20, (rac)-2-(Trifluoromethyl)-N-(2-(2-(trifluoromethyl)pyridin-4-yl)-4,5,6,7-tetrahydro-2H-indazol-4-yl)isonicotinamide]
> 1000	COc1cc(C(=O)NC2CCCc3nn(-c4ccnc(C(F)(F)F)c4)cc32)n(C)n1 (racemic) [Compound I-21, (rac)-3-Methoxy-1-methyl-N-(2-(2-(trifluoromethyl)pyridin-4-yl)-4,5,6,7-tetrahydro-2H-indazol-4-yl)-1H-pyrazole-5-carboxamide]
250 to 500	CCOc1cc(C(=O)NC2CCCc3nn(-c4ccnc(C(F)(F)F)c4)cc32)n(C)n1 (racemic) [Compound I-22, (rac)-3-Ethoxy-1-methyl-N-(2-(2-(trifluoromethyl)pyridin-4-yl)-4,5,6,7-tetrahydro-2H-indazol-4-yl)-1H-pyrazole-5-carboxamide]
> 1000	COCc1cc(C(=O)NC2CCCc3nn(-c4ccnc(C(F)(F)F)c4)cc32)n(C)n1 (racemic) [Compound I-23, (rac)-3-(Methoxymethyl)-1-methyl-N-(2-(2-(trifluoromethyl)pyridin-4-yl)-4,5,6,7-tetrahydro-2H-indazol-4-yl)-1H-pyrazole-5-carboxamide]
500 to 1000	Cn1cc(C(F)(F)F)nc1C(=O)NC1CCCc2nn(-c3ccnc(C(F)(F)F)c3)cc21 (racemic) [Compound I-24, (rac)-1-Methyl-4-(trifluoromethyl)-N-(2-(2-(trifluoromethyl)pyridin-4-yl)-4,5,6,7-tetrahydro-2H-indazol-4-yl)-1H-imidazole-2-carboxamide]
250 to 500	COc1cc(-n2cc3c(n2)CCCC3NC(=O)c2cc(C(F)(F)F)nn2C)ccn1 (racemic) [Compound I-25, (rac)-N-(2-(2-Methoxypyridin-4-yl)-4,5,6,7-tetrahydro-2H-indazol-4-yl)-1-methyl-3-(trifluoromethyl)-1H-pyrazole-5-carboxamide]
250 to 500	Cn1nc2ccccc2c1C(=O)NC1CCCc2nn(-c3ccnc(C(F)(F)F)c3)cc21 (racemic) [Compound I-26, (rac)-2-Methyl-N-(2-(2-(trifluoromethyl)pyridin-4-yl)-4,5,6,7-tetrahydro-2H-indazol-4-yl)-2H-indazole-3-carboxamide]
250 to 500	CCOc1cc(-n2cc3c(n2)CCCC3NC(=O)c2cc(C(F)(F)F)ccc2C)ccn1 (racemic) [Compound I-28, (rac)-N-(2-(2-Ethoxypyridin-4-yl)-4,5,6,7-tetrahydro-2H-indazol-4-yl)-2-methyl-5-(trifluoromethyl)benzamide]
